The record followed here is patent publication US20070249670A1, “Glycogen Phosphorylase Inhibitor Compounds and Pharmaceutical Compositions Thereof” (SMITHKLINE BEECHAM CORPORATION, priority 2004, published 2007).

pIC50: −log10 of the molar value.

The test deals with T1, human liver glycogen phosphorylase a (HLGPa) (Homo sapiens, UniProt P06737).
T1 construct: creating a full-length cDNA fused at the 5′ end to codons for methionine-glycine-alanine-histidine; 6xHis tag (leader Met-Gly-Ala-His6-Gly-Gly) (N); made in house; host or cells: E. coli (bacterial expression plasmid pTXK1007LTev)
T1 sequence (P06737 2-847 limits assumed): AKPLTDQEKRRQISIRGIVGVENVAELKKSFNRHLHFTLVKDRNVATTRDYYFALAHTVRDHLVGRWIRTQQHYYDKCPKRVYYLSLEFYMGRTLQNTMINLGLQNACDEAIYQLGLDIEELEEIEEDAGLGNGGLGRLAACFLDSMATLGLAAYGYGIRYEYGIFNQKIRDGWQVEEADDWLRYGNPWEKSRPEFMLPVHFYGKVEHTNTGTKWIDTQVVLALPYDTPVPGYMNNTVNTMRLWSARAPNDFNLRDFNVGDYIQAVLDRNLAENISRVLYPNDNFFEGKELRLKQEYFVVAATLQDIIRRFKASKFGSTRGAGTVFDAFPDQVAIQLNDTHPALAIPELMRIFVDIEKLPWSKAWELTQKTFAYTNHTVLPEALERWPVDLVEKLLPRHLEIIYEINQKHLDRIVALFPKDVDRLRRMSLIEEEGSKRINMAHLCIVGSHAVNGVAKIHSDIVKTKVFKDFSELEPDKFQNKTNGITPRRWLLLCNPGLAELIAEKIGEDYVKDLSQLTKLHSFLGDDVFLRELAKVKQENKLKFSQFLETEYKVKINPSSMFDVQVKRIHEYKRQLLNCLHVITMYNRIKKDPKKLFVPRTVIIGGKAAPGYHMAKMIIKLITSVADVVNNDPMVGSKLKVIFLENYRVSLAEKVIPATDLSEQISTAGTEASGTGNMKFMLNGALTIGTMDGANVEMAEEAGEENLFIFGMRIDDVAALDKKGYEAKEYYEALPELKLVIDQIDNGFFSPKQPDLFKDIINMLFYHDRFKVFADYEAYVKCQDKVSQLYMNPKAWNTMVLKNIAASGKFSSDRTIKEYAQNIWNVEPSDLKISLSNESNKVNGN
Kind of test: Human liver glycogen phosphorylase a enzymatic activity assay (coupled, fluorescent resorufin readout, with and without 10 mM glucose). Format: biochemical. The following applies: human liver glycogen phosphorylase a enzymatic activity assay.

The term pIC50 denotes the IC50 on a negative log10 scale, so that one unit is a factor of ten. A high value points to a low IC50.

`O=C(Nc1cc2ccccc2cc1C(=O)N[C@@H](CC1CCCCC1)C(=O)O)Nc1c(Cl)cccc1Cl` [Example 146, 3-cyclohexyl-N-{[3-({[(2,6-dichlorophenyl)amino]carbonyl}amino)-2-naphthalenyl]carbonyl}-L-alanine] had a pIC50 of 6.27. Under `Cc1noc(C)c1NC(=O)Nc1cc2ccccc2cc1C(=O)N[C@@H](CC(=O)O)C(=O)O` [Example 147, N-{[3-({[(3,5-dimethyl-4-isoxazolyl)amino]carbonyl}amino)-2-naphthalenyl]carbonyl}-L-aspartic acid] stands 4.54; under `O=C(O)C[C@H](NC(=O)c1cc2ccccc2cc1NC(=O)Nc1c(Cl)cccc1Cl)C(=O)O` [Example 148, N-{[3-({[(2,6-dichlorophenyl)amino]carbonyl}amino)-2-naphthalenyl]carbonyl}-L-aspartic acid], 6.64. Consider `O=C(O)C[C@H](NC(=O)c1cc2ccccc2cc1NC(=O)Nc1c(F)cccc1F)C(=O)O` [Example 149, N-{[3-({[(2,6-difluorophenyl)amino]carbonyl}amino)-2-naphthalenyl]carbonyl}-L-aspartic acid], for which the pIC50 was 5.30. In turn, `O=C(O)C[C@H](NC(=O)c1cc2ccccc2cc1NC(=O)Nc1ccccc1Cl)C(=O)O` [Example 151, N-{[3-({[(2-chlorophenyl)amino]carbonyl}amino)-2-naphthalenyl]carbonyl}-L-aspartic acid] had a pIC50 of 5.81.

Take `O=C(Nc1cc2ccccc2cc1C(=O)N[C@H](C(=O)O)C1CCCCC1)Nc1c(F)cccc1F` [Example 153, (2S)-cyclohexyl({[3-({[(2,6-difluorophenyl)amino]carbonyl}amino)-2-naphthalenyl]carbonyl}amino)ethanoic acid]: the pIC50 was 5.31.

In turn, `O=C(Cc1c(Cl)cccc1Cl)Nc1cc2ccccc2cc1C(=O)N[C@H](C(=O)O)C1CCCCC1` [Example 155, (2S)-cyclohexyl{[(3-{[(2,6-dichlorophenyl)acetyl]amino}-2-naphthalenyl)carbonyl]amino}ethanoic acid] showed a pIC50 of 5.17. `O=C(Nc1cc(Cl)ccc1C(=O)N[C@H](C(=O)O)C1CCCCC1)Nc1c(Cl)cccc1Cl` [Example 156, (2S)({[4chloro2({[(2,6dichlorophenyl)amino]carbonyl}amino)phenyl]carbonyl}amino)(cyclohexyl)ethanoic acid] had a pIC50 of 7.09. In the case of `Cc1cccc(C)c1NC(=O)Nc1cc(Cl)ccc1C(=O)N[C@H](C(=O)O)C1CCCCC1` [Example 157, (2S)-({[4-chloro-2-({[(2,6-dimethylphenyl)amino]carbonyl}amino)phenyl]carbonyl}amino)(cyclohexyl)ethanoic acid] it was 6.62; in that of `CCc1cccc(C)c1NC(=O)Nc1cc2ccccc2cc1C(=O)N[C@H](C(=O)O)C1CCCCC1` [Example 159, (2S)-cyclohexyl{[3-({[(2-ethyl-6-methylphenyl)amino]carbonyl}amino)-2-naphthoyl]amino}ethanoic acid], 7.24; in that of `O=C(Nc1cc2ccccc2cc1C(=O)N[C@H](C(=O)O)C1CCCCC1)Nc1c(Cl)cccc1C(F)(F)F` [Example 160, (2S)-({3-[({[2-chloro-6-(trifluoromethyl)phenyl]amino}carbonyl)amino]-2-naphthoyl}amino)(cyclohexyl)ethanoic acid], 7.17.

As for `O=C(Cc1c(Cl)cc(C(F)(F)F)cc1Cl)Nc1cc2ccccc2cc1C(=O)N[C@H](C(=O)O)C1CCCCC1` [Example 161, (2S)-cyclohexyl{[3-({[2,6-dichloro-4-(trifluoromethyl)phenyl]acetyl}amino)-2-naphthoyl]amino}ethanoic acid], the pIC50 was 6.96. Against the preceding molecule, the pIC50 is 0.21 log units lower. Under `O=C(Cc1c(Cl)cc(Cl)cc1Cl)Nc1cc2ccccc2cc1C(=O)N[C@H](C(=O)O)C1CCCCC1` [Example 162, (2S)-cyclohexyl[(3-{[(2,4,6-trichlorophenyl)acetyl]amino}-2-naphthoyl)amino]ethanoic acid] stands 7.34. Under `Cc1cccc(C)c1NC(=O)Nc1cc2ccccc2cc1C(=O)NCCC(=O)O` [Example 163, N-[3-({[(2,6-dimethylphenyl)amino]carbonyl}amino)-2-naphthoyl]-beta-alanine] stands 6.29; under `O=C(Nc1cc(Cl)ccc1C(=O)O)Nc1c(Cl)cccc1Cl` [Example 165, 4-Chloro-2-({[(2,6-dichlorophenyl)amino]carbonyl}amino)benzoic acid], 4.82.

`Cc1cccc(C)c1NC(=O)Nc1cc(Cl)ccc1C(=O)O` [Example 166] gave a pIC50 of 5.06.

`Cc1cccc(C)c1NC(=O)Nc1cc(Cl)ccc1C(=O)N[C@H](C(=O)O)C1CCCCC1` [Example 167, (2S)-({[4-Chloro-2-({[(2,6-dimethylphenyl)amino]carbonyl}amino)phenyl]carbonyl}amino)(cyclohexyl)-ethanoic acid] had a pIC50 of 6.41. Regarding `O=C(Nc1cc(Cl)ccc1C(=O)N[C@H](C(=O)O)C1CCCCC1)Nc1c(Cl)cccc1Cl` [Example 168, (2S)-({[4-Chloro-2-({[(2,6-dichlorophenyl)amino]carbonyl}amino)phenyl]carbonyl}amino)(cyclohexyl)-ethanoic acid], the pIC50 is 6.70. Compared with the last molecule, the pIC50 is 0.29 log units higher. The molecule `Cc1ccc(NC(=O)Nc2c(C)cccc2C)c(C(=O)N[C@H](C(=O)O)C2CCCCC2)c1` [Example 169, (2S)Cyclohexyl({[2({[(2,6dimethylphenyl)amino]carbonyl}amino)-5-methylphenyl]carbonyl}amino)ethanoic acid] showed a pIC50 of 6.17. For `Cc1cccc(C)c1NC(=O)Nc1cc(Cl)ccc1C(=O)NCC(=O)O` [Example 170, N{[4chloro2({[(2,6dimethylphenyl)amino]carbonyl}amino)phenyl]carbonyl}glycine], the pIC50 is 5.54. In the case of `O=C(Nc1cc(Cl)ccc1C(=O)N[C@H](C(=O)O)C1CCCCC1)Nc1c(Cl)cc(Cl)cc1Cl` [Example 171, (2S)-({[4-Chloro-2-({[(2,4,6-trichlorophenyl)amino]carbonyl}amino)phenyl]carbonyl}amino)(cyclohexyl)-ethanoic acid] it was 6.48; in that of `Cc1cccc(Cl)c1NC(=O)Nc1cc(Cl)ccc1C(=O)N[C@H](C(=O)O)C1CCCCC1` [Example 172, (2S)-({[4-Chloro-2-({[(2-chloro-6-methylphenyl)amino]carbonyl}-amino)phenyl]carbonyl}amino)(cyclohexyl)ethanoic acid], 6.74. In the case of `Cc1cccc(C)c1NC(=O)Nc1cc(Br)ccc1C(=O)N[C@H](C(=O)O)C1CCCCC1` [Example 173, (2S)-({[4-Bromo-2-({[(2,6-dimethylphenyl)amino]carbonyl}amino)phenyl]carbonyl}amino)(cyclohexyl)-ethanoic acid] it was 6.51; in that of `Cc1cccc(C)c1NC(=O)Nc1cc(Cl)ccc1C(=O)N[C@@H](CC(=O)O)C(=O)O` [Example 174, N-{[4-Chloro-2-({[(2,6-dimethylphenyl)amino]carbonyl}amino)phenyl]carbonyl}-L-aspartic acid], 6.11; in that of `Cc1cccc(C)c1NC(=O)Nc1cc(-c2ccccc2)ccc1C(=O)N[C@H](C(=O)O)C1CCCCC1` [Example 175, (2S)-Cyclohexyl({[3-({[(2,6-dimethylphenyl)amino]carbonyl}amino)-4-biphenylyl]carbonyl}amino)ethanoic acid], 6.79. In the case of `Cc1ccc(C(=O)N[C@H](C(=O)O)C2CCCCC2)c(NC(=O)Nc2c(C)cccc2C)c1` [Example 176, (2S)-cyclohexyl({[2-({[(2,6-dimethylphenyl)amino]carbonyl}amino)-4-methylphenyl]carbonyl}amino)ethanoic acid] it was 6.12; in that of `O=C(Nc1cc(Cl)c(Cl)cc1C(=O)N[C@H](C(=O)O)C1CCCCC1)Nc1c(Cl)cccc1Cl` [Example 177, (2S)-Cyclohexyl({[4,5-dichloro-2-({[(2,6-dichlorophenyl)amino]-carbonyl}amino)phenyl]carbonyl}amino)ethanoic acid], 7.00.

As to `Cc1cccc(C)c1NC(=O)Nc1cc(C(F)(F)F)ccc1C(=O)N[C@H](C(=O)O)C1CCCCC1` [Example 178, (2S)-cyclohexyl({[2-({[(2,6-dimethylphenyl)amino]carbonyl}amino)-4-(trifluoromethyl)phenyl]carbonyl}amino)ethanoic acid], the pIC50 is 5.63.

Regarding `Cc1cc(C)c(NC(=O)Nc2cc(Cl)ccc2C(=O)N[C@H](C(=O)O)C2CCCCC2)c(C)c1` [Example 179, (2S)-({[4-Chloro-2-({[(2,4,6-trimethylphenyl)amino]carbonyl}-amino)phenyl]carbonyl}amino)(cyclohexyl)ethanoic acid], the pIC50 was 7.46.
